Assay results published in patent US20240238212A1, “LIPID COMPOUNDS AND LIPID NANOPARTICLE COMPOSITIONS” (SUZHOU ABOGEN BIOSCIENCES CO., LTD., priority 2022, published 2024).

Assays:
[1] = Encapsulation efficiency of lipid nanoparticles (Quant-it Ribogreen RNA assay); assay type: physicochemical; details: LNP comprising the compound
Procedure: (§1) Briefly, a cationic lipid provided herein, DSPC, cholesterol, and PEG-lipid were solubilized in ethanol at a molar ratio of 50:10:38.5:1.5, and mRNA were diluted in 10 to 50 mM citrate buffer, pH=4. The LNPs were prepared at a total lipid to mRNA weight ratio of approximately 10:1 to 30:1 by mixing the ethanolic lipid solution with the aqueous mRNA solution at a volume ratio of 1:3 using a microfluidic apparatus, total flow rate ranging from 9-30 mL/min. Ethanol were thereby removed and replaced by DPBS using dialysis. Finally, the lipid nanoparticles were filtered through a 0.2 μm sterile filter.
(§2) Lipid nanoparticle size were determined by dynamic light scattering using a Malvern Zetasizer Nano ZS (Malvern UK) using a 173° backscatter detection mode. The encapsulation efficiency of lipid nanoparticles were determined using a Quant-it Ribogreen RNA quantification assay kit (Thermo Fisher Scientific, UK) according to the manufacturer's instructions.

[2] = Apparent pKa of LNP formulations (TNS fluorescence assay); assay type: physicochemical; details: LNP formulation
Procedure: As reported in literature, the apparent pKa of LNP formulations correlates with the delivery efficiency of LNPs for nucleic acids in vivo. The apparent pKa of each formulation was determined using an assay based on fluorescence of 2-(p-toluidino)-6-napthalene sulfonic acid (TNS). LNP formulations comprising of cationic lipid/DSPC/cholesterol/DMG-PEG (50/10/38.5/1.5 mol %) in PBS were prepared as described above. TNS was prepared as a 300 μM stock solution in distilled water. LNP formulations were diluted to 0.1 mg/mL total lipid in 3 mL of buffered solutions containing 50 mM sodium citrate, 50 mM sodium phosphate, 50 mM sodium borate, and 30 mM sodium chloride where the pH ranged from 3 to 9. An aliquot of the TNS solution was added to give a final concentration of […] and following vortex mixing fluorescence intensity was measured at room temperature in a Molecular Devices Spectramax iD3 spectrometer using excitation and mission wavelengths of 325 nm and 435 nm. A sigmoidal best fit analysis was applied to the fluorescence data and the pKa value was measured as the pH giving rise to half-maximal fluorescent intensity.

[3] = test system: luciferase mRNA expression; experiment: Animal Study 2: luciferase mRNA LNPs i.v. in mice, optical imaging; assay type: in vivo; details: female Balb/c mice, 0.25 mg/kg tail vein injection, e.g. 6 hours; relative to MC3 LNP
Procedure: Lipid nanoparticles comprising compounds in the following table encapsulating mRNA encoding luciferase were systemically administered to 6-8 week old female Balb/c mice (Charles River Lab, ZheJiang) at 0.25 mg/kg dose by tail vein injection and mice blood were sampled at specific time points (e.g., 6 hours) post administration. Optical imaging was performed using the IVIS Spectrum CT device (PerkinElmer Inc., Paris, France). The luminescence level was evaluated by an ROI applied to the injection site zone (Living Image software, PerkinElmer Inc., Paris, France). In addition to the aforementioned tested groups, lipid nanoparticles comprising dilinoleylmethyl-4-dimethylaminobutyrate (other names: DLin-MC3-DMA or MC3) encapsulating luciferase mRNA were similarly administered at the same dose to age and gender comparative groups of mice as a positive control.
Characteristics of tested lipid nanoparticles, including luciferase expression levels over MC3 measured from the tested group are listed in the table below.

[4] = Lipid nanoparticle size and polydispersity by dynamic light scattering; assay type: physicochemical; details: LNP comprising the compound
Procedure: as §1, §2

[5] = Lipid clearance study: lipid remaining in liver tissue by LC-MS/MS; details: mouse liver; for % Dose Remaining in Liver Tissue, 6 h: 6 h after 0.5 mg/kg i.v. bolus dose mRNA; for % Dose Remaining in Liver Tissue, 24 h: 24 h after 0.5 mg/kg i.v. bolus dose mRNA; for % Dose Remaining in Liver Tissue, 48 h: 48 h after 0.5 mg/kg i.v. bolus dose mRNA
Procedure: LNPs were injected into mice via the tail vein (ICR female, IV, 0.5 mg mRNA/kg), then mice were anesthetized under carbon dioxide at different time (e.g., 6 h, 24 h, and 48 h) after administration and sacrificed via cardiac puncture. Liver tissue were collected immediately, and then washed by ice-cold saline. Liver samples were weighed and homogenized in ice water bath by adding pre-chilled 20% methanol-water (v/v) at 2˜8° C. with the ratio of 1:5 (w/v). The homogenized tissue samples were stored in −90˜−60° C. freezer prior to analysis.
All liver tissue homogenate samples were allowed to thaw at room temperature. An aliquot of 50 μL of sample was added with 50 μL MgCl2 (2M), then added with ACN which contains of Verapamil, 5 ng mL-1 and Glibenclamide, 50 ng mL-1 and Diclofenac, 200 ng mL^−1 and Tolbutamide, 200 ng mL^−1 for protein precipitation, then centrifuged at 13000 rpm for 8 min. Then 100 μL of supernatant was added with 100 μL water, then vortexed well. An aliquot of 5 μL of the mixture was injected into the LC-MS/MS system.

[6] = test system: human erythropoietin (hEPO) mRNA expression; experiment: Animal Study 1: hEPO mRNA LNPs i.v. in mice, serum EPO by ELISA; assay type: in vivo; details: female ICR mice, 0.5 mg/kg tail vein injection, blood e.g. 6 hours post administration; relative to MC3 LNP
Procedure: Lipid nanoparticles comprising compounds in the following table encapsulating human erythropoietin (hEPO) mRNA were systemically administered to 6-8 week old female ICR mice (Xipuer-Bikai, Shanghai) at 0.5 mg/kg dose by tail vein injection and mice blood were sampled at specific time points (e.g., 6 hours) post administration. In addition to the aforementioned tested groups, lipid nanoparticles comprising dilinoleylmethyl-4-dimethylaminobutyrate (DLin-MC3-DMA, usually abbreviated to MC3) encapsulating hEPO mRNA were similarly administered at the same dose to age and gender comparative groups of mice as a positive control.
Mice were euthanized by CO2 overdoses after the last sampling time point. Serum were separated from total blood by centrifugation at 5000 g for 10 minutes at 4 T, snap-frozen and stored at −80 T for analysis. ELISA assay were carried out using a commercial kit (DEP00, R&D systems) according to manufacturer's instructions.
Characteristics of tested lipid nanoparticles, including EPO expression levels over MC3 measured from the tested group are listed in the table below.

[7] = hEPO mRNA, cationic lipid/DSPC/cholesterol/PEG-lipid 50:10:38.5:1.5

Row | SMILES | Encapsulation efficiency ([1]; luciferase mRNA) | Apparent pKa ([2]; TNS assay (Table 3)) | luciferase expression over MC3 [3] | Polydispersity ([4]; luciferase mRNA) | Size (nm) ([4]; luciferase mRNA) | Encapsulation efficiency ([1]; hEPO mRNA) | % Dose Remaining in Liver Tissue, 6 h [5] | % Dose Remaining in Liver Tissue, 24 h [5] | % Dose Remaining in Liver Tissue, 48 h [5] | EPO expression over MC3 [6] | Polydispersity ([4]; hEPO mRNA) | Size (nm) [4, 7] | Apparent pKa ([2]; TNS assay (Table 2))
1 | CCCCCCCC(=O)OCC(CCCCN(CCCCC(COC(=O)CCCCCCC)COC(=O)CCCCCCC)CCCNc1c(N(CC)CCO)c(=O)c1=O)COC(=O)CCCCCCC [Compound 60] | 93.20% | 6.809 | C (≥0.1 and <1) | 0.011 | 73.37 nm | – | – | – | – | – | – | – | –
2 | CCCCCCCC(=O)OCC(CCCCN(CCCCC(COC(=O)CCCCCCC)COC(=O)CCCCCCC)CCOCCO)COC(=O)CCCCCCC [Compound 5] | – | – | – | – | – | 89.49% | 2.646% | 0.098% | 0% | A (≥2) | 0.073 | 82.87 nm | –
3 | CCCCC/C=C\C/C=C\CCCCCCCC(=O)OCCCCCCN(CCCCC(COC(=O)CCCCCCC)COC(=O)CCCCCCC)C1CC(O)C1 (stereo not shown) [Compound 58] | 89.76% | 6.948 | A (≥2) | 0.053 | 81.27 nm | – | – | – | – | – | – | – | –
4 | CCCCCCCC(=O)OCC(COC(=O)CCCCCCC)OCCCN(CCCOC(COC(=O)CCCCCCC)COC(=O)CCCCCCC)CCN(CCO)C1CCC1 [Compound 9] | – | – | – | – | – | 87.29% | 1.071% | 0.089% | 0% | A (≥2) | 0.046 | 111.6 nm | 6.558
5 | CCCCCCCCC(CCCCCC)COC(=O)CCCCCN(CCO)CCCCC(COC(=O)CCCCCCC)COC(=O)CCCCCCC (stereo not shown) [Compound 10] | – | – | – | – | – | 91.36% | 0.981% | 0.19% | 0.038% | B (≥1 and <2) | 0.084 | 61.45 nm | 6.624
6 | CCCCCCCCCCCOC(=O)CCCCCN(CCO)CCCOC(COC(=O)CCCCCCC)COC(=O)CCCCCCC [Compound 8] | – | – | – | – | – | 84.70% | 1.274% | 0.068% | 0% | C (≥0.1 and <1) | 0.051 | 95.24 nm | 6.992
7 | CCCCCCCCC(CCCCCC)CNC(=O)CCCCCN(CCO)CCCCC(COC(=O)CCCCCCC)COC(=O)CCCCCCC (stereo not shown) [Compound 11] | – | – | – | – | – | 85.63% | 3.1% | 0.537% | 0.139% | D (<0.1) | 0.082 | 59.17 nm | –
8 | CCCCCCCCOC(CCCCCN(CCCCCC(OCCCCCCCC)OCCCCCCCC)CCOCCO)OCCCCCCCC [Compound 17] | – | – | – | – | – | 96.64% | – | – | – | C (≥0.1 and <1) | 0.056 | 79.67 nm | 6.189
9 | CCCCCCCC(=O)OCC(CCCCN(CCCCCNc1c(N(C)C)c(=O)c1=O)CCCCC(COC(=O)CCCCCCC)COC(=O)CCCCCCC)COC(=O)CCCCCCC [Compound 28] | – | – | – | – | – | 89.90% | – | – | – | C (≥0.1 and <1) | 0.077 | 68.48 nm | 6.593
10 | CCCCCCCC(=O)OCC(COC(=O)CCCCCCC)COC(=O)CCCCCCCN(CCO)CCCCCCCC(=O)OCC(COC(=O)CCCCCCC)COC(=O)CCCCCCC [Compound 65] | – | – | – | – | – | 96.01% | – | – | – | A (≥2) | 0.040 | 62.56 nm | 6.338
11 | CCCCCCCCC(CCCCCC)COC(=O)CCCCCN(CCO)CCCCCC(=O)OCC(CC)(COC(=O)CCCCCCC)COC(=O)CCCCCCC (stereo not shown) [Compound 84] | – | – | – | – | – | 94.81% | – | – | – | A (≥2) | 0.022 | 72.82 nm | 6.355
12 | CCCCCCCC(=O)OCC(CCCCN(CCCCC(COC(=O)CCCCCCC)COC(=O)CCCCCCC)[C@@H]1CC[C@H](O)C1)COC(=O)CCCCCCC [Compound 47] | – | – | – | – | – | 89.99% | – | – | – | A (≥2) | 0.039 | 91.46 nm | 6.767
13 | CCCCCCCC(=O)OCC(COC(=O)CCCCCCC)COC(=O)CCCCCN(CCCCCCCO)CCCCCC(=O)OCC(COC(=O)CCCCCCC)COC(=O)CCCCCCC [Compound 70] | – | – | – | – | – | 95.70% | – | – | – | B (≥1 and <2) | 0.037 | 67.7 nm | 6.171
14 | CCCCCCCCC(=O)OCC(COC(=O)CCCCCCCC)COC(=O)CCCCCN(CCO)CCCCCC(=O)OCC(COC(=O)CCCCCCCC)COC(=O)CCCCCCCC [Compound 75] | – | – | – | – | – | 93.47% | – | – | – | A (≥2) | 0.074 | 66.83 nm | 6.703
15 | CCCCCCCC(=O)OCC(CCCCN(CCCCC(COC(=O)CCCCCCC)COC(=O)CCCCCCC)CCCNc1c(N(C)CC)c(=O)c1=O)COC(=O)CCCCCCC [Compound 34] | – | – | – | – | – | 89.70% | – | – | – | A (≥2) | 0.04761 | 67.6 nm | 6.34
16 | CCCCCCCC(=O)OCC(CCCCCCN(CCCCCO)CCCCCCC(COC(=O)CCCCCCC)COC(=O)CCCCCCC)COC(=O)CCCCCCC [Compound 29] | – | – | – | – | – | 86.98% | – | – | – | A (≥2) | 0.031 | 80.75 nm | 6.513
17 | CCCCCCCC/C=C\CCCCCCCC(=O)OCCCCCCN(CCO)CCCCC(COC(=O)CCCCCCC)COC(=O)CCCCCCC [Compound 24] | – | – | – | – | – | 90.29% | – | – | – | C (≥0.1 and <1) | 0.07 | 70.66 nm | 6.745
18 | CCCCCCCCCCCCCCCCCC(=O)OCCCCCCN(CCCCC(COC(=O)CCCCCCC)COC(=O)CCCCCCC)C1CC(O)C1 (stereo not shown) [Compound 57] | 90.36% | 7.046 | A (≥2) | 0.026 | 86.07 nm | – | – | – | – | – | – | – | –
